# Results: US20170190671A1, “BIS(ARYL)CATECHOL DERIVATIVES AS HERBICIDES” (E I DU PONT DE NEMOURS AND COMPANY, priority 2014, published 2017)
# Experiments:
# Format in all cases: in vivo
# [1] = test system: barnyardgrass (Echinochloa crus-galli); experiment: Test B flooded paddy; conditions: Echinochloa crus-galli, 336 h; 250 g ai/ha, Flood, 13 to 15 days, scale 0 (no effect) to 100 (complete control); read-out: Plant response rating, Barnyardgrass
# Method in brief: (§1)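 Compound was added to standing water 3 cm above soil, flood maintained, and plants held in a greenhouse before visual scoring against controls at 13 to 15 days.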
# [2] = test system: ducksalad (Heteranthera limosa); experiment: Test B flooded paddy; conditions: Heteranthera limosa, 336 h; 250 g ai/ha, Flood, 13 to 15 days, scale 0 (no effect) to 100 (complete control); read-out: Plant response rating, Ducksalad
# Method in brief: as §1
# rice (Oryza sativa) = experiment: Test B flooded paddy; conditions: Oryza sativa, 336 h; 250 g ai/ha, Flood, 13 to 15 days, scale 0 (no effect) to 100 (complete control); read-out: Plant response rating, Rice
# Method in brief: as §1
# [3] = test system: sedge, umbrella (small-flower umbrella sedge, Cyperus difformis); experiment: Test B flooded paddy; conditions: Cyperus difformis, 336 h; 250 g ai/ha, Flood, 13 to 15 days, scale 0 (no effect) to 100 (complete control); read-out: Plant response rating, Sedge, Umbrella
# Method in brief: as §1
# [4] = test system: Italian ryegrass (Lolium multiflorum); experiment: Test A preemergence; conditions: Lolium multiflorum, pre-emergence, 240 h
# Method in brief: (§2)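 Greenhouse pot test, loam/sand soil. Formulation: non-phytotoxic solvent mix plus surfactant. Pre: directed spray onto soil after sowing. Post: plants at 1–2 leaf, 2–10 cm. Rated visually vs untreated controls at ~10 d, 0 (no effect) to 100 (complete control).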
# [5] = test system: barnyardgrass (Echinochloa crus-galli); experiment: Test A preemergence; conditions: Echinochloa crus-galli, pre-emergence, 240 h
# Method in brief: as §2
# [6] = test system: giant foxtail (Setaria faberii); experiment: Test A preemergence; conditions: Setaria faberi, pre-emergence, 240 h
# Method in brief: as §2
# kochia (Kochia scoparia) [7] = experiment: Test A preemergence; conditions: Bassia scoparia, pre-emergence, 240 h
# Method in brief: as §2
# [8] = test system: pigweed (Amaranthus retroflexus); experiment: Test A preemergence; conditions: Amaranthus retroflexus, pre-emergence, 240 h
# Method in brief: as §2
# [9] = test system: ragweed (common ragweed, Ambrosia elatior); experiment: Test A preemergence; conditions: Ambrosia artemisiifolia, pre-emergence, 240 h
# Method in brief: as §2
# [10] = test system: Italian ryegrass (Lolium multiflorum); experiment: Test A postemergence; conditions: Lolium multiflorum, post-emergence, 240 h, 0 to 100 scale, read-out: Plant response rating, Ryegrass, Italian
# Method in brief: as §2
# [11] = test system: barnyardgrass (Echinochloa crus-galli); experiment: Test A postemergence; conditions: Echinochloa crus-galli, post-emergence, 240 h, 0 to 100 scale, read-out: Plant response rating, Barnyardgrass
# Method in brief: as §2
# [12] = test system: blackgrass (Alopecurus myosuroides); experiment: Test A postemergence; conditions: Alopecurus myosuroides, post-emergence, 240 h, 0 to 100 scale, read-out: Plant response rating, Blackgrass
# Method in brief: as §2
# corn (Zea mays) = experiment: Test A postemergence; conditions: Zea mays, post-emergence, 240 h, 0 to 100 scale
# Method in brief: as §2
# [13] = test system: galium (catchweed bedstraw, Galium aparine); experiment: Test A postemergence; conditions: Galium, post-emergence, 240 h, 0 to 100 scale, read-out: Plant response rating, Galium
# Method in brief: as §2
# [14] = test system: giant foxtail (Setaria faberii); experiment: Test A postemergence; conditions: Setaria faberi, post-emergence, 240 h, 0 to 100 scale, read-out: Plant response rating, Foxtail, Giant
# Method in brief: as §2
# kochia (Kochia scoparia) [15] = experiment: Test A postemergence; conditions: Bassia scoparia, post-emergence, 240 h, 0 to 100 scale, read-out: Plant response rating, Kochia
# Method in brief: as §2
# [16] = test system: pigweed (Amaranthus retroflexus); experiment: Test A postemergence; conditions: Amaranthus retroflexus, post-emergence, 240 h, 0 to 100 scale, read-out: Plant response rating, Pigweed
# Method in brief: as §2
# [17] = test system: ragweed (common ragweed, Ambrosia elatior); experiment: Test A postemergence; conditions: Ambrosia artemisiifolia, post-emergence, 240 h, 0 to 100 scale, read-out: Plant response rating, Ragweed
# Method in brief: as §2
# [18] = test system: wheat (Triticum aestivum); experiment: Test A postemergence; conditions: Triticum aestivum, post-emergence, 240 h, 0 to 100 scale, read-out: Plant response rating, Wheat
# Method in brief: as §2
smiles,measurement,setting,value
"N#Cc1cccc(Oc2ncc(Cl)cn2)c1Oc1ccc(Cl)cn1 [Compound 16, 2-[(5-chloro-2-pyridinyl)oxy]-3-[(5-chloro-2-pyrimidinyl)oxy]benzonitrile]",pest or weed control at 250 g/ha,[1],20%
same,pest or weed control at 250 g/ha,[2],90%
same,plant injury at 250 g/ha,rice (Oryza sativa),40%
same,pest or weed control at 250 g/ha,[3],95%
same,pest or weed control at 31 g/ha,"[4]; 31 g ai/ha, 0 to 100 scale (0 no effect, 100 complete control), read-out: Ryegrass, Italian plant response rating",0%
same,pest or weed control at 125 g/ha,"[4]; 125 g ai/ha, 0 to 100 scale (0 no effect, 100 complete control), read-out: Ryegrass, Italian plant response rating",20%
same,pest or weed control at 31 g/ha,"[5]; 31 g ai/ha, 0 to 100 scale (0 no effect, 100 complete control), read-out: Barnyardgrass plant response rating",30%
same,pest or weed control at 125 g/ha,"[5]; 125 g ai/ha, 0 to 100 scale, read-out: Plant response rating, Barnyardgrass",70%
same,pest or weed control at 31 g/ha,"[6]; 31 g ai/ha, 0 to 100 scale (0 no effect, 100 complete control), read-out: Foxtail, Giant plant response rating",90%
same,pest or weed control at 125 g/ha,"[6]; 125 g ai/ha, 0 to 100 scale (0 no effect, 100 complete control), read-out: Foxtail, Giant plant response rating",100%
same,pest or weed control at 31 g/ha,"kochia (Kochia scoparia) [7]; 31 g ai/ha, 0 to 100 scale (0 no effect, 100 complete control), read-out: Kochia plant response rating",30%
same,pest or weed control at 125 g/ha,"kochia (Kochia scoparia) [7]; 125 g ai/ha, 0 to 100 scale (0 no effect, 100 complete control), read-out: Kochia plant response rating",90%
same,pest or weed control at 31 g/ha,"[8]; 31 g ai/ha, 0 to 100 scale (0 no effect, 100 complete control), read-out: Pigweed plant response rating",100%
same,pest or weed control at 125 g/ha,"[8]; 125 g ai/ha, 0 to 100 scale (0 no effect, 100 complete control), read-out: Pigweed plant response rating",100%
same,pest or weed control at 31 g/ha,"[9]; 31 g ai/ha, 0 to 100 scale (0 no effect, 100 complete control), read-out: Ragweed plant response rating",0%
same,pest or weed control at 125 g/ha,"[9]; 125 g ai/ha, 0 to 100 scale (0 no effect, 100 complete control), read-out: Ragweed plant response rating",0%
same,pest or weed control at 31 g/ha,[10]; 31 g ai/ha,40%
same,pest or weed control at 125 g/ha,[10]; 125 g ai/ha,80%
same,pest or weed control at 31 g/ha,[11]; 31 g ai/ha,10%
same,pest or weed control at 125 g/ha,[11]; 125 g ai/ha,70%
same,pest or weed control at 31 g/ha,[12]; 31 g ai/ha,50%
same,pest or weed control at 125 g/ha,[12]; 125 g ai/ha,70%
same,"Corn plant response rating (crop injury, 0 = no effect, 100 = complete kill) at 31 g/ha",corn (Zea mays); 31 g ai/ha,0%
same,"Corn plant response rating (crop injury, 0 = no effect, 100 = complete kill) at 125 g/ha",corn (Zea mays); 125 g ai/ha,20%
same,pest or weed control at 31 g/ha,[13]; 31 g ai/ha,90%
same,pest or weed control at 125 g/ha,[13]; 125 g ai/ha,90%
same,pest or weed control at 31 g/ha,[14]; 31 g ai/ha,70%
same,pest or weed control at 125 g/ha,[14]; 125 g ai/ha,80%
same,pest or weed control at 31 g/ha,kochia (Kochia scoparia) [15]; 31 g ai/ha,50%
same,pest or weed control at 125 g/ha,kochia (Kochia scoparia) [15]; 125 g ai/ha,100%
same,pest or weed control at 31 g/ha,[16]; 31 g ai/ha,100%
same,pest or weed control at 125 g/ha,[16]; 125 g ai/ha,100%
same,pest or weed control at 31 g/ha,[17]; 31 g ai/ha,10%
same,pest or weed control at 125 g/ha,[17]; 125 g ai/ha,30%
same,plant injury at 31 g/ha,[18]; 31 g ai/ha,0%
same,plant injury at 125 g/ha,[18]; 125 g ai/ha,20%
Fc1cccc(Oc2ncc(Cl)cn2)c1Oc1ccc(Cl)nc1 [Compound 20],pest or weed control at 250 g/ha,[1],20%
same,pest or weed control at 250 g/ha,[2],95%
same,plant injury at 250 g/ha,rice (Oryza sativa),15%
same,pest or weed control at 250 g/ha,[3],90%
same,pest or weed control at 1000 g/ha,"[4]; 1000 g ai/ha, 0 to 100 scale, read-out: Plant response rating, Ryegrass, Italian",70%
same,pest or weed control at 1000 g/ha,"[5]; 1000 g ai/ha, 0 to 100 scale, read-out: Plant response rating, Barnyardgrass",100%
same,pest or weed control at 1000 g/ha,"[6]; 1000 g ai/ha, 0 to 100 scale, read-out: Plant response rating, Foxtail, Giant",100%
same,pest or weed control at 1000 g/ha,"kochia (Kochia scoparia) [7]; 1000 g ai/ha, 0 to 100 scale, read-out: Plant response rating, Kochia",90%
same,pest or weed control at 1000 g/ha,"[8]; 1000 g ai/ha, 0 to 100 scale, read-out: Plant response rating, Pigweed",100%
same,pest or weed control at 1000 g/ha,"[9]; 1000 g ai/ha, 0 to 100 scale, read-out: Plant response rating, Ragweed",40%
same,pest or weed control at 1000 g/ha,[10]; 1000 g ai/ha,40%
same,pest or weed control at 1000 g/ha,"[11]; 1000 g ai/ha, 0 no effect, 100 complete control",90%
same,pest or weed control at 1000 g/ha,[12]; 1000 g ai/ha,60%
same,"Corn plant response rating (crop injury, 0 = no effect, 100 = complete kill) at 1000 g/ha",corn (Zea mays); 1000 g ai/ha,50%
same,pest or weed control at 1000 g/ha,[13]; 1000 g ai/ha,90%
same,pest or weed control at 1000 g/ha,[14]; 1000 g ai/ha,90%
same,pest or weed control at 1000 g/ha,kochia (Kochia scoparia) [15]; 1000 g ai/ha,90%
same,pest or weed control at 1000 g/ha,[16]; 1000 g ai/ha,100%
same,pest or weed control at 1000 g/ha,[17]; 1000 g ai/ha,60%
same,plant injury at 1000 g/ha,[18]; 1000 g ai/ha,50%
